Measurements as given in patent US12521439B2, “Methods and materials for modulating Nrf2 pathway” (The General Hospital Corporation, priority 2019, dated 2026).
Entries after “also recorded” stand apart in the source; their conditions may differ. Where a name gives a salt, the structure may show the parent alone. One block for each compound: values may come before it.

Assays:
U87 glioma cells = test: Cell viability (CellTiter-Glo), U87; assay type: cell-based, human; settings: for U87 cell viability: same doses as ARE test, FIG. 12D
Description: Cell culture: MDA-MB-231 and U87 (U87-MG) cells were obtained from the American Type Culture Collection (ATCC). 293T human embryonic kidney fibroblasts were provided by Dr. Xandra Breakefield (Massachusetts General Hospital). All three cell lines were grown in Dulbecco's modified Eagle medium supplemented with 10% fetal bovine serum (Gemini Bio-products), 100 U penicillin, and 0.1 mg/mL streptomycin (Sigma). All cells were maintained at 37° C. in a humidified 5% CO2 incubator. GSCs were obtained from tumor tissues of GBM patients following surgical resection, under approval from the corresponding Institutional Review Board. These cells have been previously characterized (ref. 37-39) and were maintained in culture as neurospheres in Neurobasal medium (Gibco) supplemented with heparin (2 μg/mL; Sigma) and recombinant EGF (20 ng/mL) and bFGF-2 (10 ng/mL; Peprotech). Human Astrocytes were obtained from ScienCell and cultured in Astrocytes Medium (ScienCell)
(§1) Cell viability: Cells were plated in 96-well plates and treated with the corresponding compounds. Cell viability was measured by adding 25 μl/well of CellTiter-Glo (Promega) followed by 10 minutes incubation and transfer to a white 96-well plate. Bioluminescence was quantified using Synergy HTX multimode reader (Biotek).

ARE (Nrf2 pathway) = test: ARE-Gluc luciferase reporter (normalized to SV40-Vluc); assay type: cell-based, human; settings: for ARE activity: U87, CINN 100, FUM 50 μM, SULF 5 μM, FIG. 12C
Description: DNA expression constructs: ARE reporter was designed and generated based on our previously published reporter for monitoring of the transcription factor Nuclear Factor Kappa B (NFkB). NFkB TRE elements were removed and replaced with four copies of the ARE enhancer sequence. This reporter consists of a CSCW lentivirus vector in which we have introduced two copies of the 1.2 kb chicken beta-globin (HS4) insulator elements, a TATA box acting as a minimal promoter upstream of the secreted Gaussia luciferase (Gluc). pcDNA3-HA2-Keap1 (Addgene plasmid #21556) and pcDNA3-HA2-Keap1 delta BTB (Addgene plasmid #21593) were a gift from Yue Xiong^2. pHAGE DN Cullin 3 (DN-CUL3) was a gift from Stephen Elledge (Addgene plasmid #41913). Constructs expressing constitutively active Gluc, Firefly luciferase (Fluc) and Vargula luciferase (Vluc) were previously describe. MISSION shRNA Bacterial Glycerol Stocks for Keap1 as well as a non-target shRNA were obtained from Sigma. Transfection of plasmid DNA was performed using Lipofectamine 2000 (Invitrogen) as per manufacturer's guidelines. Lentivirus packaging and titration was performed in 293T cells by the MGH viral vector core facility following standard protocols. Keap1 mutant C151S plasmid was kindly provided by Dr. Wooyoung Hur.
Luciferase assay: Coelenterazine (20 μM; Nanolight), The Gluc substrate was added to a 25 μL aliquot of conditioned medium and photon counts were measured using a luminometer. Similarly, the secreted Vluc activity was measured by adding its substrate vargulin (5 ng/mL; Nanolight). Cells stably expressing Gluc under the ARE enhancer sequence and Vluc under the constitutively active SV40 minimal promoter were used to determine the ARE reporter activity. The normalized Gluc/Vluc ratio was used as a marker for ARE activation.

BRD4 [1] = molecular target: T1, BRD4 (Homo sapiens, UniProt O60885); test: OBT-JQ1 PROTAC mechanism (proteasome block, Keap1/CUL3 knockdown); assay type: cell-based; parameters: endogenous in cells
Description: (§2) Immunoblotting and Immunoprecipitation analysis: Antibodies against PDI, GAPDH, HA-tag, Ubiquitin, Keap1 and beta-actin (Cell Signaling) as well as secondary Horseradish peroxidase (HRP) conjugated antibodies: sheep anti-mouse IgG-HRP and donkey antirabbit IgG-HRP (Amersham Pharmacia Biotech) were used in this study. For protein expression analysis, cells were lysed in RIPA buffer (150 mM NaCl, 50 mM TRIS, pH 8.0, 1% NP-40, 0.5% deoxycholate, 0.1% SDS) supplemented with 1× protease inhibitors cocktail (Roche). Proteins were quantified using a Bradford protein determination assay (Bio-Rad) followed by electrophoresis in 10% NuPAGE Bis-Tris gels (Life Technologies) and transfer to nitrocellulose membranes (Bio-Rad). Membranes were incubated overnight with antibodies in 1-5% non-fat milk powder in PBS/0.5% TWEEN. Proteins were detected with SuperSignal West Pico Chemiluminescent Substrate (Pierce). For immunoprecipitation assays, cells were lysed in RIPA buffer supplemented with protease inhibitors and 2 mM N-ethylmaleimide. Cell lysates were pre-cleared with protein A agarose beads (Cell Signaling) and incubated with anti-HA antibody with gentle rocking overnight at 4° C. followed by incubation with protein A agarose beads and subsequent washing and elution steps. Electrophoresis, transfer and immunoblot analysis was performed as described above.

BRD4 [2] = molecular target: T1, BRD4; test: BRD4 degradation in breast cancer cells; assay type: cell-based; parameters: endogenous in cells; settings: FIG. 16
Description: as §2

BRD4 [3] = molecular target: T1, BRD4; test: BRD4 degradation in patient-derived glioma cells; assay type: cell-based; parameters: endogenous in cells; host or cells: patient-derived glioma cells; patient-derived breast cancer cells; settings: FIG. 17
Description: as §2

cancer cells = test: Cancer cell death with OBT, JQ1, OBT-JQ1; assay type: cell-based; settings: FIG. 23
Description: as §1

BRD4 [4] = molecular target: T1, BRD4; test: BRD4 degradation in glioma cells; assay type: cell-based; parameters: endogenous in cells; settings: FIG. 15
Description: as §2

BRD4 [5] = molecular target: T1, BRD4; test: BRD4 degradation in patient-derived breast cancer cells; assay type: cell-based; parameters: endogenous in cells; host or cells: patient-derived glioma cells; patient-derived breast cancer cells; settings: FIG. 18
Description: as §2

BRD4 [6] = molecular target: T2, BRD4 (Mus musculus, UniProt Q9ESU6); test: BRD4 degradation in mouse glioma model in vivo (Western blotting); parameters: species or system mice; settings: CT2A glioma; intratumoral, intravenous and intranasal routes; 24 hrs after last injection
T2 construct: CT2A glioma cells expressing mCherry fluorescent protein were implanted in the brain of mice; from tissue; host or cells: CT2A glioma tumour removed from mouse brain
Description: CT2A glioma cells expressing mCherry fluorescent protein were implanted in the brain of mice and 2 weeks later, once tumor reached a significant size, mice were injected with 0.7 mg/kg body weight of OBT-JQ1 using different injection routes (1) direct intratumoral injection (single injection), intravenously (once/day over 3 days) and intranasally (once/day over 3 days, an injection route that typically bypasses the blood-brain barrier). 24 hrs after the last injection, brains were removed and the tumor was lysed and analyzed by Western blotting for BRD4 and mCherry and actin loading controls.

[7] = Solubility in aqueous media; assay type: physicochemical

Compound: C[S+]([O-])CCCCN=C=S (stereo not drawn) [sulforaphane]
U87 cell viability (U87 glioma cells): moderate decrease | ARE activity (ARE (Nrf2 pathway)): increased ARE activity

Compound: O=CC=Cc1ccccc1 [cinnamaldehyde]
U87 cell viability (U87 glioma cells): moderate decrease | ARE activity (ARE (Nrf2 pathway)): increased ARE activity

Compound: COC1=CC(=O)C(OCC(=O)NCCCOCCOCCOCCCNC(=O)CC2N=C(c3ccc(Cl)cc3)c3c(sc(C)c3C)-n3c(C)nnc32)=C/C1=C/C=C/c1ccccc1 (stereo not drawn) [OBT-JQ1, 2-(4-(4-chlorophenyl)-2,3,9-trimethyl-6H-thieno[3,2-f][1,2,4]triazolo[4,3-a][1,4]diazepin-6-yl)-N-(1-(((Z)-4-methoxy-6-oxo-3-((E)-3-phenylallylidene)cyclohexa-1,4-dien-1-yl)oxy)-2-oxo-7,10,13-trioxa-3-azahexadecan-16-yl)acetamide]
effect of OBT-JQ1 when proteasome is blocked (BRD4 [1]; FIG. 20): reverses the effect | PROTAC activity in Keap1 and CuL3 knockdown (BRD4 [1]; FIG. 21): retains PROTAC activity | BRD4 degradation (BRD4 [2]): promotes targeted degradation of BRD4 | BRD4 degradation (BRD4 [3]): promotes targeted degradation of BRD4 | induced cell death in presence of antioxidant NAC (cancer cells): not protected | BRD4 degradation (BRD4 [4]): promotes targeted degradation of BRD4 | BRD4 degradation (BRD4 [5]): promotes targeted degradation of BRD4 | BRD4 degradation in brain tumors (BRD4 [6]): induces BRD4 degradation; also recorded: efficient BRD4 degradation

Compound: CCOC(=O)/C=C/C(=O)OCC [diethyl fumarate]
U87 cell viability (U87 glioma cells): moderate decrease | ARE activity (ARE (Nrf2 pathway)): increased ARE activity

Compound: COC(=O)[C@]12CCC(C)(C)C[C@H]1[C@H]1C(=O)C=C3[C@@]4(C)C=C(C#N)C(=O)C(C)(C)[C@@H]4CC[C@@]3(C)[C@]1(C)CC2 [CDDO-Me, 2-cyano-3,12-dioxoolean-1,9-dien-28-oic acid-methyl ester]
cell viability (U87 glioma cells; higher doses, U87 cells, FIG. 12B): marked decrease | ARE-Gluc reporter activity (ARE (Nrf2 pathway); U87 and MDA-MB-231 cells, FIG. 12A): increased reporter activity

Second part, the compound after the results:

solubility compared to OBT [7]: overcome the limited solubility of OBT
Compound: COc1cc(O)c(O)cc1C(/C=C/c1ccccc1)SCCO (stereo not drawn) [AF20a, (E)-4-(1-((2-hydroxyethyl)thio)-3-phenylallyl)-5-methoxybenzene-1,2-diol]

solubility compared to OBT [7]: overcome the limited solubility of OBT
Compound: COc1cc(O)c(O)cc1/C=C/C(SCCO)c1ccccc1 (stereo not drawn) [AF20b, (E)-4-(3-((2-hydroxyethyl)thio)-3-phenylprop-1-en-1-yl)-5-methoxybenzene-1,2-diol]
